Source: patent publication US9018374B2, “Crystal of amide compound” (Takeda Pharmaceutical Company Limited, priority 2010, dated 2015)
Entries after “also recorded” stand apart in the source; their conditions may differ.

Experiments:
[1] = Slurry interconversion; format: physicochemical; conditions: for crystal form 1 day later: 20 mg in 0.2 mL isopropyl alcohol, slurry at ambient temperature, powder X-ray diffraction, hydrochloride
Description: Type A crystal, type B crystal, and a mixture (1:1) of type A crystal and type B crystal (each 20 mg) were measured in vials, and isopropyl alcohol (0.2 mL) was added to give suspension containing excess solids remaining therein. The vial was sealed, and shaken on a slurry wheel at ambient temperature for 1 day at steady rotation. Thereafter, the solids were collected by filtration.

[2] = Dissolution test; conditions: room temperature (25° C.)
Description: To type A crystal and type B crystal (each 50 mg) were added 2-butanone, ethyl acetate, toluene, n-heptane and tert-butylmethylether (each 5 mL), and the dissolution property was measured using a powder suspension (25° C., 2 hr). The suspension was centrifuged, the supernatant was filtered with a filter (pore size 0.22 μm), and the solvent was evaporated from the filtrate under a nitrogen atmosphere. The residue obtained by evaporation was dissolved in a mixed solution of 50 mM aqueous ammonium acetate solution/acetonitrile (1:1), and measured by HPLC.

[3] = Moisture adsorption analysis; format: physicochemical; conditions: 25° C., hydrochloride
Description: Moisture adsorption of type A crystal and type B crystal was automatically analyzed by VTI Symmetrical Gravimetric Analyzer in step-isothermal mode (SGA-100 for type A crystal, SGA-CX for type B crystal). Samples were exposed various relative humidities (RH) at 25° C. The weight of the samples at each relative humidity was recorded after equilibrium (weight change of less than 0.02% within 10 min).

Compound	crystal form 1 day later [1]	thermodynamic stability as compared to type A crystal (from slurry experiment) ([1]; ambient temperature)	thermodynamic stability as compared to type A crystal (from dissolution test) [2]	level (%) of weight change ([3]; relative humidity 30% RH) [%]	level (%) of weight change ([3]; relative humidity 50% RH) [%]	level (%) of weight change ([3]; relative humidity 70% RH) [%]
COCCCCn1c(C(=O)N(CC(C)C)[C@@H]2CNC[C@H](C(=O)N3CCOCC3)C2)nc2ccccc21.Cl [type B crystal, 1-(4-methoxybutyl)-N-(2-methylpropyl)-N-[(3S,5R)-5-(morpholin-4-ylcarbonyl)piperidin-3-yl]-1H-benzimidazole-2-carboxamide hydrochloride]	no change; also recorded: type B	thermodynamically stable	thermodynamically stable	0.0	0.5	0.9
COCCCCn1c(C(=O)N(CC(C)C)[C@@H]2CNC[C@H](C(=O)N3CCOCC3)C2)nc2ccccc21.Cl [type A crystal, 1-(4-methoxybutyl)-N-(2-methylpropyl)-N-[(3S,5R)-5-(morpholin-4-ylcarbonyl)piperidin-3-yl]-1H-benzimidazole-2-carboxamide hydrochloride, reference compound]	convert to type B crystal	–	–	−0.1	0.0	7.6
